Measured values published in paper PMC10634319 (Biochemistry, 2023).

Legend:
human ABCB10 [1] = biological target: T1, human ABCB10 (Homo sapiens, UniProt Q9NRK6); conditions: 0.3 μM protein, 0-2000 μM ATP, 5 mM MgCl2, 37 °C, no added lipid
T1 sequence (Q9NRK6 152-738): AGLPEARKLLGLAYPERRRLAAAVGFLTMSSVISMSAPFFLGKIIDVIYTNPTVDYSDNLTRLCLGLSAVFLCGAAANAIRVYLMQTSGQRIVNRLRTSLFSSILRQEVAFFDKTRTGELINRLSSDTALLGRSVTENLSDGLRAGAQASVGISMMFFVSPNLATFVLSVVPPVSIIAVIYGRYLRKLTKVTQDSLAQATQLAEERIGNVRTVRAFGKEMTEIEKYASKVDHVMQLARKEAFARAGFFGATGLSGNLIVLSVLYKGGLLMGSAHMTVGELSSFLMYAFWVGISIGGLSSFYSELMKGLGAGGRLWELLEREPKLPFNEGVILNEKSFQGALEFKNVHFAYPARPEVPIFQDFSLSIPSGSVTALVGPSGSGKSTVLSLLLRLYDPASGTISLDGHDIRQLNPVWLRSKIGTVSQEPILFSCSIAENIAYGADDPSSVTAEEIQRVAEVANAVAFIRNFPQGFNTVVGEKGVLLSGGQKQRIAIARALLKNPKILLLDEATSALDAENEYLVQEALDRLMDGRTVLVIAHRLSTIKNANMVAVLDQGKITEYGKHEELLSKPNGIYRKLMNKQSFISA

human ABCB10 [2] = biological target: T1, human ABCB10; experiment: ATPase activity, malachite green phosphate assay; format: biochemical

IC50 (human ABCB10 [2]) [µM]	SMILES	KM (human ABCB10 [1])
	Nc1ncnc2c1ncn2[C@@H]1O[C@H](COP(=O)(O)OP(=O)(O)OP(=O)(O)O)[C@@H](O)[C@H]1O [ATP]	Michaelis–Menten equation was fitted to the initial rates to determine the Michaelis constant (KM)
~10	CCCCCCCC/C=C\CCCCCCCC(=O)OC[C@H](COP(=O)(O)OCC(O)COP(=O)(O)OC[C@@H](COC(=O)CCCCCCC/C=C\CCCCCCCC)OC(=O)CCCCCCC/C=C\CCCCCCCC)OC(=O)CCCCCCC/C=C\CCCCCCCC (some centres unmarked) [TOCDL, 1,1′,2,2′-tetraoleoyl-cardiolipin]	
